Tested on: EL-4 lymphoma
Conditions: cyclophosphamide 100 mg/kg, intraperitoneal, single; routine blood analysis, P<0.05
Description: Preparation of experimental animals: The experimental animals were adapted to the experimental environment (temperature 22°C±2°C, relative humidity 50%±2%) for 1 day.
Subcutaneous inoculation of EL-4 cell suspension to replicate a mouse lymphoma model: The EL-4 tumor tissue was ground into a suspension using a glass homogenizer, the tumor suspension was aspirated with a syringe, the number of live cells was calculated, the cell concentration was adjusted to 2.0*10^6/ml with physiological saline, and then the suspension was injected into the left armpit of mice with 0.2 ml/mouse. […] On the day of treatment, weight was measured, 20µl of blood was obtained from the orbital blood and the routine blood analysis was performed. The tumor blocks were stripped, weighed and photographed, and the tumor suppression rate was calculated.
The tumor suppression rate [(The average weight of the tumor in the normal control group - the average weight of the tumor in the experimental group) / The average weight of the tumor in the normal control group × 100 %] and average value, standard deviation and standard errors of tumor weight were calculated. The data from the groups were compared with each other by T.TEST, and P<0.05 was considered as a significant difference.

SMILES: O=P1(N(CCCl)CCCl)NCCCO1 (stereo not shown) [cyclophosphamide, Cyclophosphamide]
- number of leukocytes, lymphocytes, monocytes, and neutrophils: significantly reduced

— EP4600260A1, “KERATIN YK93-4, AND PREPARATION METHOD THEREFOR, PHARMACEUTICAL COMPOSITION THEREOF AND USE THEREOF” (INSTITUTE OF MATERIA MEDICA, CHINESE ACADEMY OF MEDICAL …, priority 2022, dated 2024)
